The subject of assay [1] is A549 cells. Kind of assay: PD assay (Assay 2): inhibition of nuclear symmetric Arginine dimethylation (SYM10 immunohistochemistry) in A549 cells. As to conditions: individual measurements shown; for IC50: Homo sapiens, A549, PD assay in A549 cells, read-out: pIC50 Assay 2 (converted); for pIC50 Assay 2: PD assay in A549 cells. The format is cell-based. How it is done: EXPERIMENTAL PROCEDURE PD ASSAY (ASSAY 2)
A549 cells (ATCC, Cat #CCL-185) were cultured in Dulbecco's Modified Eagle's Medium (DMEM) (Sigma, Cat #D5796), supplemented with 10% Fetal Calf Serum (FCS)(HyClone™, Cat #SV30160.03), 100 mM Sodium Pyruvate (Sigma, Cat #S8636), 200 mM L-Glutamine (Sigma, Cat #G7513) and 50 mg/mL Gentamycing (Gibco, Cat #15750-037).
Reagents used for buffers were purchased: Dulbecco's phosphate buffered saline (DPBS) without Ca/Mg (Sigma, Cat #D8537), phosphate buffered saline (PBS) 10× (Roche, Cat #11 666 789 001), Formalin solution 10% (Sigma, HT50-1-128-4L), MeOH 100% (Sigma, Cat #32213-2.5L), Triton X-100 (Acros, Cat #215680010), Bovine Serum Albumin (BSA) (Sigma, Cat #A2153), Alexa fluor 488 goat anti-rabbit antibody (Life Technologies, Cat #A11034), HCS CellMask Deep Red Stain (Life Technologies, Cat #H32721), Hoechst Stain (Life Technologies, Cat #33258), Anti-dimethyl-Arginine, sym (SYM10) antibody (Millipore, 07-412).
Immunohistochemistry Procedure
Cells were plated at 400 cells/40 μL/well in 384 well black plates μclear bottom (Perkin Elmer) and overnight incubated at 37° C., 5% CO2. The IC50 Studies were performed using nine point dosing series ranging from 10 μM to […] for each compound. 80 nL of the respective dilution of the compounds was added using the Labcyte POD 810 (Labcyte) reaching a final DMSO concentration of 0.2% in cell culture. After an incubation period of 48 h at 37° C. and 5% CO2, cells were fixed in 10% formalin solution for 15 min at r.t. and 20 min in ice-cold MeOH, after which they were washed 3× in DPBS. Subsequently, the cells were blocked for 1 h in blocking buffer (PBS+1% BSA and 0.5% Triton X-100) and incubated overnight at 4° C. with the SYM10 antibody diluted 1/2000 in blocking buffer. The cells were washed 3× with washing buffer (PBS+0.1% Triton X-100) and incubated with the Alexa fluor 488 goat anti-rabbit antibody diluted 1/200 in blocking buffer for 1 h at r.t. Subsequently, they were washed 3× with washing buffer and incubated for 30 min at r.t. with PBS containing a 1/5000 dilution of Hoechst Stain and a 1/5000 dilution of the HCS CellMask Deep Red Stain. After a final wash with PBS, the plates were imaged using the 10×W lens of the Opera® system (Perkin Elmer Life Sciences) using following settings (values in nm):
In the above equations, the following variable names are use: […]
In the above equations, the following controls were used for normalization: […]
Low control: minimum level of symmetrically dimethylated Arginines (cells treated with reference compound at 10 μM).
High control: maximum level of symmetrically dimethylated Arginines (DMSO treated cells).
IC50 and pIC50 (−log IC50) values were calculated using the appropriate software.
pIC50 values (Co. No. means compound number; n.d. means not determined).

For assay [2], the target named is T1, PRMT5-MEP50 enzyme (Homo sapiens, UniProt O14744).
T1 construct: One virus expresses full length human PRMT5 with Flag-tag at N-terminus
T1 sequence (O14744 whole entry): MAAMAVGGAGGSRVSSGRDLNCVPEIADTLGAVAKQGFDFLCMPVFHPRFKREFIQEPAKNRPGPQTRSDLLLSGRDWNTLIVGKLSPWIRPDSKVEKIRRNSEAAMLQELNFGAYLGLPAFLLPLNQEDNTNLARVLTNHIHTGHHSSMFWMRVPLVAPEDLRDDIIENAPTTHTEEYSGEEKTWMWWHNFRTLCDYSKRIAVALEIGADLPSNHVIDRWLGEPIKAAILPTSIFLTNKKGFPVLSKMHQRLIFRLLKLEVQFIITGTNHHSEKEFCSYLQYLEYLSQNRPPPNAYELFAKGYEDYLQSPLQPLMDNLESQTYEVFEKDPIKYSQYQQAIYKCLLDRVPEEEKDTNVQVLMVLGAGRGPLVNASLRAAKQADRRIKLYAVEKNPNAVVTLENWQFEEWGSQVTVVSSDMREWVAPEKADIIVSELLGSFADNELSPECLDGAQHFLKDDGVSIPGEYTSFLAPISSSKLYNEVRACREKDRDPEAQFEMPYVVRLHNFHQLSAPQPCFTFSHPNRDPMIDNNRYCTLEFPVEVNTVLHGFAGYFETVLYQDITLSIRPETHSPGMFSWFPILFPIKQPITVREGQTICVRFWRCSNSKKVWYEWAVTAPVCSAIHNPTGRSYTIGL
T1 sequence (Q9BQA1 whole entry partner): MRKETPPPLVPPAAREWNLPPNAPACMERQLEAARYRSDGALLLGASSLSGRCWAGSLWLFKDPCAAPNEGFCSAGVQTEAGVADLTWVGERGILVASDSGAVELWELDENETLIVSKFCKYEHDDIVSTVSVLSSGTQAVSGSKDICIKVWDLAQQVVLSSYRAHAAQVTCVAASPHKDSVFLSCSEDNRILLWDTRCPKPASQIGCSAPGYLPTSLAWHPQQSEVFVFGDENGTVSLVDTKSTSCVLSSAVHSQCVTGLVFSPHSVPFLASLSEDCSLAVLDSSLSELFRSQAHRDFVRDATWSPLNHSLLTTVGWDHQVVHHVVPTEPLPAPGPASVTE
The assay is described as follows: In vitro assay (Assay 1): PRMT5-MEP50 high throughput mass spectrometer assay, inhibition of SAH formation. It is filed as biochemical. As to conditions: individual measurements shown, read-out: pIC50 Assay 1 (converted). The text has this: EXPERIMENTAL PROCEDURES IN VITRO ASSAY (ASSAY 1)
PRMT5-MEP50 enzyme was purchased from Charles River (Argenta). The enzyme complex was produced in insect cells (Sf9) infected simultaneously with two baculoviruses. One virus expresses full length human PRMT5 with Flag-tag at N-terminus, the second virus expresses full length MEP50 with His6-TEV cleavage at N-terminus. The protein was affinity purified using anti-Flag (M2) beads eluted with 3×FLAG peptide, followed by His-Select eluted with 0.5M imidazole. Eluted protein was then dialysed against tris-buffered saline (TBS) (pH 8.0) containing 20% glycerol and 3 mM dithiothreitol (DTT).
Full-length untagged human recombinant histone H2A (residues 1-130, Genbank Accession #NM_021052, MW=14.1 kDa) expressed in E. coli was purchased from Reaction Biology Corporation, Cat #HMT-11-146. Reagents used for making reaction buffer or stopping reaction were purchased including Tris base (Sigma Cat #T-1503), NaCl (Sigma Cat #RGF-3270), MgCl2 (Sigma Cat #M0250), DTT (Invitrogen Cat #15508-013) and Formic Acid (Riedel deHaen, Cat #33015)
High Throughput Mass Spectrometer Assay
PRMT5 catalyzes the sequential methylations of the terminal nitrogen atoms on the guanidine groups of arginine residues within proteins using co-substrate S-adenosyl-L-methionine (AdoMet, SAM), forming mono-methyl (MMA), symmetric-dimethyl arginine (sDMA) and S-adenosyl-L-homocysteine (AdoHcy, SAH). The enzyme activity was determined by following the product SAH formation using high throughput mass spectrometry (Agilent Rapidfire 300 System coupled to a Sciex 4000 series QTrapm triple-quad MS/MS). The reaction buffer was 20 mM Tris-HC, pH 8.5, 50 mM NaCl, 5 mM MgCl2 and 1 mM DTT. The reaction activity was stopped using 1% formic acid (final concentration).
The IC50 Studies were performed using eleven point dosing series made for each compound by serially diluted 1:2 in dimethyl sulfoxide (DMSO), with point 12 being a DMSO control. Compounds were first spotted to plates, and followed by addition of 2 μM SAM and 0.6 μM H2A (histone H2A) solution mixture. The same volume of enzyme solution was added to initiate the enzymatic reactions. The final concentrations of the reaction are at 1 μM SAM, 0.3 μM H2A and 10 nM enzyme. The reaction was incubated at 30° C. for 60 minutes (min) and then quenched by addition of formic acid to a final concentration of 1%. The inhibitions of SAH formation in the presence of compounds were calculated as a percentage of the control relative to the uninhibited reaction as a function of inhibitor concentration. The data were fit as follows: Y=Bottom+(Top−Bottom)/(1+10^((log IC50−X)*h))
where IC50 is the inhibitor concentration (same unit as X) at 50% inhibition and h is the Hill slope. Y is percent of inhibition, X is log of compound concentration. Bottom and Top are the plateaus in same units as Y.

Several values for one entry are separate records, joined by “and”; a condition that tells them apart may be missing. Equal values may be shown once.

Consider `NCC[C@H]1CCCN1C[C@H]1O[C@@H](n2cnc3c(N)ncnc32)[C@H](O)[C@@H]1O` [Compound 58], for which the figures for the IC50 in assay [1] and in assay [2] were ~6920 nM and 724 nM, respectively.

As for `NCC[C@@H]1CCCN1C[C@H]1O[C@@H](n2cnc3c(N)ncnc32)[C@H](O)[C@@H]1O` [Compound 59], the IC50 in assay [1] is 2400 nM; in assay [2], 44.7 nM.

Regarding `NCC1CCCN1C[C@H]1O[C@@H](n2ccc3c(N)ncnc32)[C@H](O)[C@@H]1O` (stereo partly shown) [Compound 60], the figures for the IC50 in assay [1] and in assay [2] were 1150 nM and 28.8 nM, respectively.

As to `Nc1nccc2c1ccn2[C@@H]1O[C@H](CN2CCCC23CCNCC3)[C@@H](O)[C@H]1O` [Compound 61], the values for the IC50 in assay [1] and in assay [2] were > 10000 nM and 129 nM, respectively.

In the case of `O[C@@H]1[C@H](O)[C@@H](CN2CCCC23CCNCC3)O[C@H]1n1cnc2cncnc21` [Compound 62], the IC50 in assay [1] is > 10000 nM; in assay [2] it was 501 nM.

On to `CN1CCC2(CCCN2C[C@H]2O[C@@H](n3ccc4c(N)nc(Cl)nc43)[C@H](O)[C@@H]2O)CC1` [Compound 65], for which the IC50 is 955 nM in assay [1] and 56.2 nM in assay [2].

As to `CN1CCC2(CCCN2C[C@H]2O[C@@H](n3ccc4c(N)nccc43)[C@H](O)[C@@H]2O)CC1` [Compound 66], the values for the IC50 in assay [1] and in assay [2] were 6760 nM and 603 nM, respectively.

In the case of `O[C@@H]1[C@H](O)[C@@H](CN2CC(F)(F)CC23CCN(C2CC2)CC3)O[C@H]1n1ccc2c(Cl)ncnc21` [Compound 67], the IC50 in assay [1] is ~6170 nM; in assay [2] it was 1860 nM.

`Nc1ncnc2c([C@@H]3O[C@H](CN4CCCC45CCNCC5)[C@@H](O)[C@H]3O)cnn12` [Compound 68]: the results for the IC50 in assay [1] and in assay [2] were ~1950 nM and 229 nM, respectively.

As for `NC[C@@H]1CC(F)(F)CN1C[C@H]1O[C@@H](n2ccc3c(N)cccc32)[C@H](O)[C@@H]1O` [Compound 71b], the IC50 is 562 nM in assay [1] and 51.3 nM in assay [2].

Take `NC[C@@H]1COCCN1C[C@H]1O[C@@H](n2ccc3c(N)ncnc32)[C@H](O)[C@@H]1O` [Compound 72]: the IC50 was ~3550 nM in assay [1] and 53.7 nM in assay [2].

Regarding `NC[C@H]1CC(F)(F)CN1C[C@H]1O[C@@H](n2ccc3c(N)ncnc32)[C@H](O)[C@@H]1O` [Compound 73b], the IC50 in assay [1] was 2450 nM; in assay [2] it was 209 nM.

For the compound `CN1CC2(CCCN(C[C@H]3O[C@@H](n4ccc5c(N)ncnc54)[C@H](O)[C@@H]3O)C2)C1` [Compound 74], in assay [1], the IC50 is 372 nM and the “pIC50 Assay 2” value was ~6.51. Moreover, the IC50 in assay [2] is 37.2 nM and 35.5 nM.

For the compound `Nc1ncnc2c1ncn2[C@@H]1O[C@H](CN2CCC3(CCNCC3)C2)[C@@H](O)[C@H]1O` [Compound 75], the values for the IC50 in assay [1] and in assay [2] were > 10000 nM and 39800 nM, respectively.

Regarding `Nc1ncnc2c1ncn2[C@@H]1O[C@H](CN2CCCC23CCNCC3)[C@@H](O)[C@H]1O` [Compound 76], the “pIC50 Assay 2” value in assay [1] was ~5.65 and ~5.97. Also, in assay [2], the IC50 is 89.1 nM and 32.4 nM and 24.5 nM.

`Nc1ncnc2c1ncn2[C@@H]1O[C@H](CN2CCC3(CCCN3)C2)[C@@H](O)[C@H]1O` (stereo partly shown) [Compound 78]: the results for the IC50 in assay [1] and in assay [2] were > 10000 nM and 2820 nM, respectively.

As for `Nc1ncnc2c1ncn2[C@@H]1O[C@H](CN2CC3(CCCNC3)C2)[C@@H](O)[C@H]1O` [Compound 79], the IC50 in assay [1] is > 10000 nM; in assay [2] it was 21400 nM.

In the case of `Nc1ncnc2c1ncn2[C@@H]1O[C@H](CN2CCCCC23CNC3)[C@@H](O)[C@H]1O` [Compound 80], the IC50 in assay [1] is > 10000 nM; in assay [2] it was 3310 nM.

Consider `Nc1ncnc2c1ncn2[C@@H]1O[C@H](CN2CCC23CCNCC3)[C@@H](O)[C@H]1O` [Compound 81], for which the IC50 in assay [1] is 8130 nM; in assay [2] it was 355 nM.

Regarding `Nc1ncnc2c1ncn2[C@@H]1O[C@H](CN2CCCC3(CNC3)C2)[C@@H](O)[C@H]1O` [Compound 82], the IC50 in assay [1] was 2340 nM; in assay [2] it was 126 nM.

Consider `Nc1ncnc2c1ncn2[C@@H]1O[C@H](CN2CC3(CCCN3)C2)[C@@H](O)[C@H]1O` [Compound 83], for which the IC50 is > 10000 nM in assay [1] and 44700 nM in assay [2].

As to `Nc1ncnc2c1ncn2[C@@H]1O[C@H](CN2CC3(CCNC3)C2)[C@@H](O)[C@H]1O` [Compound 84], the IC50 in assay [1] is > 10000 nM; in assay [2], 77600 nM.

Turning to `Nc1ncnc2c1ncn2[C@@H]1O[C@H](CN2CCC3(CNC3)C2)[C@@H](O)[C@H]1O` [Compound 86], the figures for the IC50 in assay [1] and in assay [2] were > 10000 nM and 417 nM, respectively.

In the case of `Nc1ncnc2c1ncn2[C@@H]1O[C@H](CN2CCC23CCNC3)[C@@H](O)[C@H]1O` (stereo partly shown) [Compound 87], the figures for the IC50 in assay [1] and in assay [2] were > 10000 nM and 2400 nM, respectively.

Turning to `Nc1ncnc2c1ncn2[C@@H]1O[C@H](CN2CC3(CCN3)C2)[C@@H](O)[C@H]1O` [Compound 88], the IC50 in assay [1] was > 10000 nM; in assay [2], 46800 nM.

As for `Nc1ncnc2c1ncn2[C@@H]1O[C@H](CN2CCC23CNC3)[C@@H](O)[C@H]1O` [Compound 89], the results for the IC50 in assay [1] and in assay [2] were > 10000 nM and 2750 nM, respectively.

Consider `CN1CCC2(CC1)CN(C[C@H]1O[C@@H](n3cnc4c(N)ncnc43)[C@H](O)[C@@H]1O)C2` [Compound 90], for which the IC50 is > 10000 nM in assay [1] and 70800 nM in assay [2].

On to `Nc1ncnc2c1ncn2[C@@H]1O[C@H](CN2CCCC23CNC3)[C@@H](O)[C@H]1O` [Compound 91], for which the IC50 was > 10000 nM in assay [1] and 1230 nM in assay [2].

As for `CN1CC2(C1)CN(C[C@H]1O[C@@H](n3ccc4c(N)ncnc43)[C@H](O)[C@@H]1O)CCO2` [Compound 92], the IC50 in assay [1] was ~1380 nM; in assay [2], 126 nM.

Regarding `Nc1ncnc2c1ccn2[C@@H]1O[C@H](CN2CCOC3(C2)CN(Cc2ccc(Cl)cc2)C3)[C@@H](O)[C@H]1O` [Compound 93], the IC50 in assay [1] was ~2450 nM; in assay [2], 3020 nM.

The values are drawn from patent US10898504B2, “Substituted nucleoside analogues for use as PRMT5 inhibitors” (Janssen Pharmaceutica NV, priority 2016, dated 2021).
